Literature values as cited in article PMC5096457 (Cell chemical biology, 2016).

Assays:
c-Kit = conditions: ref DiNitto et al., 2010
[1] = system: NIH 3T3 Src−/− cells overexpressing Src (Y529F); conditions: high micromolar concentrations; ref Georghiou et al., 2012

CCN(CC)CCNC(=O)c1c(C)[nH]c(/C=C2\C(=O)Nc3ccc(F)cc32)c1C [sunitinib]
fold increase in IC50 against activated kinase target (c-Kit): 300 fold

NC(=O)[C@@H]1CCCNC(=O)[C@H](Cc2ccc([N+](=O)[O-])cc2)NC(=O)[C@H](Cc2ccc(F)cc2)NC(=O)[C@H](CC2CCCCC2)NC(=O)/C=C/C(=O)N1 [MC25a]
global tyrosine phosphorylation [1]: decreased global tyrosine phosphorylation
